According to patent US12172988B2, “Anticancer and antifungal splice modulators” (priority 2021, dated 2024):

What was measured:
Type in all cases: cell-based, human
SF3A1 = assay: qPCR splicing analysis, SF3A1 intron retention; settings: for SF3A1 intron 6 retention (level of intron retention): HCT116, 4 h, 20 times GI50, qPCR relative to GAPDH
Procedure: (§1) HCT116 tumor cells were treated with each analogue at 20 times the G150 value (Table 12) for 4 hours and then cellular RNA was isolated and purified for qPCR. Primers were designed to evaluate intron retention or exon skipping, direct responses to splice modulator treatment. Genes evaluated included those involved in splicing regulation (SF3A1, SF3A3, SF3B1, SF3B2), apoptosis (MCL-1L), protein folding (DNAJB1), and cell cycle regulation (AURKA, PLK-1) relative to the unspliced control GAPDH. For alternative splicing regulator (SF2), primers were designed to evaluate gene expression, which changes in response splice modulator treatment for SF2 relative to the unspliced control GAPDH. (−) denotes untreated cells.
as §1, with “analogues” for “each analogue”, “100 nM (light grey), 250 nM (grey), or 500 nM (black)” for “20 times the G150 value (Table 12)”, “24 h” for “4 hours”, “(MCL-1L), and” for “(MCL-1L),”, “(DNAJB1),” for “(DNAJB1), and cell cycle regulation (AURKA, PLK-1)”, “(—)” for “(−)”
(§2) Next, we turned our efforts to explore the ability of these analogues to modulate splicing. […] We treated cells for 4 h so that we could evaluate early changes in splicing activity, and then cellular RNA was isolated and purified for analyses by qPCR (FIG. 14). Most importantly, none of the concentrations tested led to significant changes in cell viability, ensuring that changes in gene expression were not due to cell death.
(§3) For these studies, we evaluated the expression of genes involved in splicing regulation (SF3A1, SF3A3, SF3B1, SF3B2), apoptosis (MCL-1L), protein folding (DNAJB1), and cell cycle regulation (AURKA, PLK-1) relative to the unspliced control GAPDH. Primers were designed to evaluate intron retention or exon skipping, direct responses to splice modulator treatment. The master splicing regulator alternative splicing factor (SF2) was also evaluated, with the primers for this gene designed to evaluate overall gene expression, which changes in response to splice modulator treatment.
(§4) From this 4 h study (FIG. 14), a small set of analogs (1, 1b, 1g, 1d, 1e, 1i and 1j) were selected to evaluate if effects on splicing when presented for a longer 24 h period. […] Using identical procedures as that used for 4 h, HCT116 cells were treated with three concentrations (100 nM, 250 nM and 500 nM) of each analog for 24 h. Multiple concentrations were used as a means to check further validate the use of the GI50 concentration in our prior study (FIG. 14). As before, none of the concentrations tested led to significant changes in cell viability over the 24-hour time window, ensuring that changes in gene expression were not due to cell death.
(§5) Cells were treated with 1 or 1a-1j in media (McCoy's 5a (Life Technologies) supplemented with 10% FBS, 2 mM L-glutamine, and 100 U mL^−1 of penicillin and 100 μg mL^−1 of streptomycin 0.5% DMSO) for 4 h or 24 h. Untreated cells were considered were used as negative control. Total RNA was isolated using mirVana miRNA isolation kit (Life Technologies). A 1 μg sample of RNA was subjected to DNAseI from a TURBO DNA free kit (Life Technologies). The cDNA was prepared by using SuperScript III reverse transcriptase kit (Life Technologies). […]

PLK-1 = assay: qPCR splicing analysis, PLK-1 exon skipping / RNA expression; settings: for PLK-1 RNA expression: HCT116, 24 h, 100, 250, 500 nM
Procedure: as §1, §2, §3, §4
Cells were treated with 1 or 1a-1j in media (McCoy's 5a (Life Technologies) supplemented with 10% FBS, 2 mM L-glutamine, and 100 U mL^−1 of penicillin and 100 μg mL^−1 of streptomycin 0.5% DMSO) for 4 h or 24 h. Untreated cells were considered were used as negative control. Total RNA was isolated using mirVana miRNA isolation kit (Life Technologies). A 1 μg sample of RNA was subjected to DNAseI from a TURBO DNA free kit (Life Technologies). […] The amount of unspliced RNA for different genes was determined using Power SYBR Green PCR master mix (Applied Biosystems) by qPCR using specific primers for each gene. qPCR using 2.5 μM of each primer was performed on 5 ng of the obtained cDNA. qPCR conditions were as follows: 95° C. for 10 min for one cycle, then 95° C. for 10 min for one cycle, then 95° C. for 30 s, 55° C. for 60 s, 72° C. for 60 s, for 40 cycles using the MXPro. Quantification cycle (Cq) values were identified for each sample, and then RNA levels were calculated using 2-ΔΔCT method. […] Namely, all genes explored in this study were evaluated from the same cell cultures. […]

SF3B2 = assay: qPCR splicing analysis, SF3B2 intron retention; settings: for SF3B2 intron retention (level of intron retention): HCT116, 4 h, 20 times GI50, qPCR relative to GAPDH; for SF3B2 intron retention: HCT116, 24 h, 100, 250, 500 nM, compared to 1
Procedure: as §1
as §1, with “analogues” for “each analogue”, “100 nM (light grey), 250 nM (grey), or 500 nM (black)” for “20 times the G150 value (Table 12)”, “24 h” for “4 hours”, “(MCL-1L), and” for “(MCL-1L),”, “(DNAJB1),” for “(DNAJB1), and cell cycle regulation (AURKA, PLK-1)”, “(—)” for “(−)”
as §2, §3, §4, §5

Structure (SMILES)	SF3A1 intron retention (SF3A1; HCT116, 24 h, 100, 250, 500 nM, compared to 1)	PLK-1 RNA expression (PLK-1)	SF3B2 intron retention (level of intron retention) (SF3B2)	SF3B2 intron retention (SF3B2)	effect on exon 3 inclusion in PLK-1 (PLK-1; HCT116, 4 h, 20 times GI50, qPCR)	SF3A1 intron 6 retention (level of intron retention) (SF3A1)
CC[C@H](OC)[C@@H](C)[C@H]1O[C@@H]1[C@@H](O)[C@H](C)/C=C/C=C(\C)[C@H]1OC(=O)C[C@H](O)CC[C@@](C)(O)[C@@H](OC(C)=O)/C=C/[C@@H]1C [Analog 1d, 17S-FD-895]	concentration dependent increased intron retention	decreased effect at reducing	improved efficacy	concentration dependent increased intron retention	–	–
CC[C@H](OC)[C@@H](C)[C@H]1O[C@@H]1[C@@H](O)[C@H](C)/C=C/C=C(\C)[C@H]1OC(=O)C[C@@H](O)CC[C@@](C)(O)[C@@H](OC(C)=O)/C=C/[C@@H]1C [Analog 1g, 3S,17S-FD-895]	–	reduced PLK-1 RNA expression	–	loss in intron retention	most potent effect	–
CC[C@H](OC)[C@@H](C)[C@@H]1O[C@H]1[C@@H](O)[C@H](C)/C=C/C=C(\C)[C@H]1OC(=O)C[C@H](O)CC[C@@](C)(O)[C@@H](OC(C)=O)/C=C/[C@@H]1C [Analog 1i, 17S,18S,19S-FD-895]	–	increased the RNA expression relative to negative controls	improved efficacy	–	–	more effective than 1
CC[C@@H](OC)[C@H](C)[C@H]1O[C@@H]1[C@@H](O)[C@H](C)/C=C/C=C(\C)[C@H]1OC(=O)C[C@H](O)CC[C@@](C)(O)[C@@H](OC(C)=O)/C=C/[C@@H]1C [Analog 1j, 17S,20S,21R-FD-895]	–	–	improved efficacy	–	–	more effective than 1
